In patent publication US20150174202A1, “Methods and Compositions for Modulating Beta Cell Proliferation” (The Board of Trustees of the Leland Stanford Junior …, priority 2011, published 2015):
Entries after “also recorded” stand apart in the source; their conditions may differ.

Tests used:
Ezh2 = test: Ezh2/Ezh1 expression in cultured mouse islets (real-time RT-PCR, western blot); format: cell-based
Method: Mouse pancreatic islets were purified as described in Chen et al. (2009) Genes Dev. 23, 975-985 and used immediately for assays described in the text. To study Ezh2 induction in cultured islets exposed to mitogens, freshly isolated islets from 2-3-week old, and 7-12-month old C57BL/6 mice were recovered and equilibrated overnight at 37° C., 5% CO2 in RPMI-1640 medium supplemented with 0.5% fetal bovine serum (FBS), 0.2% bovine albumin (BSA) and 2% penicillin/streptomycin. Afterwards, islets were distributed into microplates or dishes, and treated with recombinant human PDGF-AA, prolactin or insulin (Sigma), with or without addition of pharmacological inhibitors, including Sunitinib (Selleck), […]0126 (Sigma), LY294002 (Sigma) or U-73122 (Sigma) at the indicated concentrations. Two days later, islets were harvested for RNA or protein extraction for real-time RTPCR or western blot analyses. To detect phosphorylation of Pdgfr-α by western blot, islets were exposed to PDGF-AA (with or without indicated pharmacological inhibitors) for 90 min before islet harvesting and protein extraction. To detect in vitro islet β-cell proliferation stimulated by PDGF-AA, a final concentration of 50 μM BrdU was introduced into each culture dish 24 h before harvest, followed by standard histological processing. Immunostaining of BrdU and insulin was performed on processed islets, and β-cell proliferation rate was determined by quantifying percentage of insulin+ cells with BrdU+. Culture experiments of human islets were performed using a similar procedure described later. Total RNA from freshly isolated or cultured islets after indicated treatments were purified using the Absolutely RNA miniprep purification kit (Stratagene) according to the manufacturer's instructions. RNA concentration was measured with a RiboGreen RNA quantification assay (Invitrogen). One-step quantitative RT-PCR was performed and analysed using an ABI Prism 7300 detection system (Applied Biosystems) with TaqMan one-step RTPCR Master Mix Reagents and appropriate amounts (10-100 ng) of islet total RNA as the template. We calculated the ratio of mRNA for the gene of interest to the amount of internal control mRNA of peptidylprolyl isomerase A (cyclophilin A, PPIA), and then normalized the ratio for each gene to its median. For western blots, total islet protein was prepared from freshly isolated or cultured islets after indicated treatments as described in Chen et al. (2009) Genes Dev. 23, 975-985. Equal amounts of protein were resolved on SDS-PAGE and transferred to polyvinylidine fluoride membranes (Amersham Pharmacia) for immunoblotting with specific antibodies, including rabbit polyclonal anti-human Ezh2 (1:1,000, Millipore), rabbit polyclonal anti-phospho-PDGFR-α ([…]) (1:1,000, Santa Cruz Biotechnologies), rabbit monoclonal anti-PDGFR-α (1:1,000, Cell Signaling), mouse monoclonal anti-β-actin (1:4,000, Sigma), rabbit monoclonal anti-Akt (1:1,500, Cell Signaling), rabbit monoclonal anti-phospho-Ark ([…]) (1:1,000, Cell Signaling), rabbit monoclonal anti-p44/42 MAPK (Erk1/2) (1:1,500, Cell Signaling), rabbit monoclonal anti-phospho-p44/42 MAPK (Erk1/2) […]) (1:1,000, Cell Signaling), rabbit monoclonal anti-PLCγ1 (1:1,000, Cell Signaling) and rabbit monoclonal anti-phospho-PLCγ1 ([…]) (1:1,000, Cell Signaling). Signal was visualized using ECL detection (Amersham Pharmacia) on Kodak film after further incubation with HRP-conjugated secondary antibodies. For phospho-PDGFR-α ([…]) and PDGFR-α detection, signal was amplified by incubating the membrane with biotinylated anti-rabbit-IgG (1:2,000), followed with an incubation with HRP-avidin (1:2,000, Vector Laboratories) and then ECL visualization.

[1] = Serum PDGF-AA by ELISA in NOD-scid mice with osmotic pump; format: in vivo, mouse; details: control NOD-scid mice, subcutaneous osmotic pump primed with 4 μg PDGF-AA
Description: Exposure of islets from young human donors to purified PDGF-AA stimulates ERK-dependent signaling pathways culminating in enhanced β-cell proliferation. However, these studies have not yet shown if PDGF-AA activation is sufficient to drive regeneration of functional β-cell mass in vivo. To assess this question, equivalent numbers of size-matched islets from young (ages 1-10 years) and control adult donors (age >20 years) were transplanted into NOD-scid mice.

human EZH2 locus = test: EZH2 locus ChIP analysis with anti-E2F1 antibody in human juvenile islets; format: cell-based; details: juvenile human islets exposed to PDGF-AA
Method: ChIPs were performed using a chromatin immunoprecipitation kit from Millipore. Briefly, freshly isolated mouse pancreatic islets or cultured human islets after the indicated treatments were pooled, and fixed with 2% formaldehyde for cross-linking for 20 min at room temperature (25° C.). After washing, islets were dissolved in SDS lysis buffer containing a proteinase inhibitor cocktail followed by sonication to shear the chromatin. Precleared chromatin from 150 to 300 islets was used for each ChIP sample with incubation of 1 to 5 μg of the appropriate antibodies at 4° C. overnight. The antibodies used in the ChIP assays included mouse anti-E2F1 (Millipore), rabbit anti-E2F4 (Santa Cruz Biotechnologies), rabbit or mouse polyclonal IgG (Millipore). […] After measurement of DNA concentration by PicoGreen DNA assay (Invitrogen), equivalent amounts of chromatin DNA from every sample was quantified by real-time qPCR in ABI Prism 7300 detection system (Applied Biosystems). […] Afterwards, human islets were processed in a similar way as in mouse islet studies for immunostaining of insulin, glucagon, PDX1 and BrdU. β-Cell proliferation rate was determined by quantifying percentage of insulin+ cells with BrdU+. More than 50 islets per group were counted for determining cultured human islet β-cell proliferation rate.

PDGF-AA: recombinant human PDGF-AA, a homodimer of PDGF alpha polypeptides
Ezh2 mRNA and protein levels (Ezh2; 3-week-old (juvenile) mouse islets, 2 days exposure): increased; also recorded: induces
Ezh1 expression (Ezh2; 3-week-old mouse islets, 2 days exposure): but not Ezh1 expression
Ezh2 mRNA and protein levels (Ezh2; 7- or 9-month-old adult mouse islets exposed to PDGF-AA): not significantly increased
serum PDGF-AA levels [1]: Increased
association of E2F1 with the human EZH2 locus (ChIP) (human EZH2 locus): stimulated association of E2F1
